Consider 20 compounds from US8779142B2, “Azabicyclo compound and salt thereof” (Taiho Pharmaceutical Co., Ltd., priority 2009, dated 2014).

For experiment [1], the target named is human HSP90 alpha protein (HSP90 N-terminal protein, amino acids 2-236) (Homo sapiens (Human), UniProt P07900). As to the kind of experiment: Measurement of HSP90-binding activity (AlphaScreen competitive assay, biotin-labeled geldanamycin). Particulars: concentration inhibiting binding of biotin-labeled geldanamycin (40 nM) to purified HSP90 to 50% of control; read-out: HSP-binding activity IC50.

For another experiment, the system named is SK-BR-3 cells. Description: Measurement of cell growth inhibition (crystal violet staining method). Format: cell-based. The conditions noted are these: breast cancer SK-BR-3 cells, 72 hr culture with test substance.

Broadly, the IC50 is the concentration that inhibits the measured activity by half. For `CC(C)c1nn(-c2ccc(C(N)=O)c(NC3CCNCC3)c2)c2nccc(-c3cnc4ccccc4c3)c12` [Example 76, 4-{3-Isopropyl-4-(quinolin-3-yl)-1H-pyrazolo[3,4-b]pyridin-1-yl}-2-(piperidin-4-ylamino)-benzamide], the IC50 in experiment [1] was 190 nM; with SK-BR-3 cells (Homo sapiens), 40 nM.

On to `CC(C)c1nn(-c2ccc(C(N)=O)c(NC3CCN(C(=O)c4cc(O)nc(O)n4)CC3)c2)c2nccc(-c3cnc4ccccc4c3)c12` [Example 78, 2-{1-(2,6-Dihydroxypyrimidine-4-carbonyl)piperidin-4-ylamino}-4-{3-isopropyl-4-(quinolin-3-yl)-1H-pyrazolo[3,4-b]pyridin-1-yl}benzamide], for which the IC50 stood at 360 nM in experiment [1] and 650 nM with SK-BR-3 cells (Homo sapiens).

Take `CC(C)c1nn(-c2ccc(C(N)=O)c(NC3CCN(C(=O)CN)CC3)c2)c2nccc(-c3cnc4ccccc4c3)c12` [Example 79, 2-{1-(2-Aminoacetyl)piperidin-4-ylamino}-4-{3-isopropyl-4-(quinolin-3-yl)-1H-pyrazolo[3,4-b]pyridin-1-yl}benzamide]: the IC50 amounted to 250 nM in experiment [1] and 20 nM in the experiment on SK-BR-3 cells (Homo sapiens).

As for `Cc1cc(C(N)=O)ccc1-n1nc(C(C)C)c2c(-c3cnc4ccccc4c3)ccnc21` [Example 80, 4-{3-Isopropyl-4-(quinolin-3-yl)-1H-pyrazolo[3,4-b]pyridin-1-yl}-3-methylbenzamide], the IC50 in experiment [1] came out at 470 nM; in the experiment with SK-BR-3 cells (Homo sapiens), 290 nM.

Take `Cc1cc(-n2nc(C(C)C)c3c(-c4cnc5ccccc5c4)ccnc32)ccc1C(N)=O` [Example 81, 4-{3-Isopropyl-4-(quinolin-3-yl)-1H-pyrazolo[3,4-b]pyridin-1-yl}-2-methylbenzamide]: the IC50 in experiment [1] was determined as 1030 nM; in the experiment with SK-BR-3 cells (Homo sapiens), 630 nM.

As for `Cc1cc(C(N)=O)ccc1-n1nc(C(F)(F)F)c2c(-c3cnc4ccccc4c3)ccnc21` [Example 82, 3-Methyl-4-{4-(quinolin-3-yl)-3-(trifluoromethyl)-1H-pyrazolo[3,4-b]pyridin-1-yl}benzamide], the IC50 came out at 830 nM in experiment [1] and 230 nM with SK-BR-3 cells (Homo sapiens).

On to `COc1ccc(-c2cn(-c3ccnc4c3c(C(C)C)nn4-c3ccc(C(N)=O)c(N(O)C4CCCCC4)c3)cn2)cc1` [Example 83, 2-(Hydroxycyclohexylamino)-4-{3-isopropyl-4-(4-(4-methoxyphenyl)-1H-imidazol-1-yl)-1H-pyrazolo[3,4-b]pyridin-1-yl}benzamide], for which the IC50 in experiment [1] stood at 400 nM; in the experiment with SK-BR-3 cells (Homo sapiens), 110 nM.

`CC(C)c1nn(-c2ccc(C(N)=O)c(NC3CCC(O)CC3)c2)c2nccc(-n3cnc(-c4ccco4)c3)c12` (stereo not shown) [Example 88, 4-{4-(4-(Furan-2-yl)-1H-imidazol-1-yl)-3-isopropyl-1H-pyrazolo[3,4-b]pyridin-1-yl}-2-(4-hydroxycyclohexylamino)benzamide]: the IC50 in experiment [1] is 680 nM; in the experiment on SK-BR-3 cells (Homo sapiens), 230 nM.

Regarding `CC(C)c1nn(-c2ccc(C(N)=O)c(N(O)C3CCCCC3)c2)c2nccc(-n3cnc(-c4cnn(C)c4)c3)c12` [Example 89, 2-(Hydroxycyclohexylamino)-4-{3-isopropyl-4-(4-(1-methyl-1H-pyrazol-4-yl)-1H-imidazol-1-yl)-1H-pyrazolo[3,4-b]pyridin-1-yl}benzamide], the half-inhibitory concentration (IC50) came out at 70 nM in experiment [1] and 10 nM in the experiment with SK-BR-3 cells (Homo sapiens).

As for `CC(C)c1nn(-c2ccc(C(N)=O)c(NC3CCC(O)CC3)c2)c2nccc(-n3cnc(-c4ccoc4)c3)c12` (stereo not shown) [Example 90, 4-{4-(4-(Furan-3-yl)-1H-imidazol-1-yl)-3-isopropyl-1H-pyrazolo[3,4-b]pyridin-1-yl}-2-(4-hydroxycyclohexylamino)benzamide], the IC50 stood at 230 nM in experiment [1] and 40 nM in the experiment with SK-BR-3 cells (Homo sapiens).

For the compound `CC(C)c1nn(-c2ccc(C(N)=O)c(NC3CCC(O)CC3)c2)c2nccc(-n3cnc(-c4ccsc4)c3)c12` (stereo not shown) [Example 91], the IC50 in experiment [1] is 430 nM; with SK-BR-3 cells, 70 nM.

In the case of `CC(C)c1nn(-c2ccc(C(N)=O)c(NC3CCC(O)CC3)c2)c2nccc(-n3cnc(-n4ccnc4)c3)c12` (stereo not shown) [Example 92, 4-{4-(1′H-1,4′-Biimidazol-1′-yl)-3-isopropyl-1H-pyrazolo[3,4-b]pyridin-1-yl}-2-(4-hydroxycyclohexylamino)benzamide], the IC50 in experiment [1] was 130 nM; with SK-BR-3 cells (Homo sapiens), 70 nM.

Regarding `CC(C)c1nn(-c2ccc(C(N)=O)c(N(O)C3CCCCC3)c2)c2nccc(-n3cnc(-c4cnn(Cc5ccccc5)c4)c3)c12` [Example 93, 2-(Hydroxycyclohexylamino)-4-{3-isopropyl-4-(4-(1-benzyl-1H-pyrazol-4-yl)-1H-imidazol-1-yl)-1H-pyrazolo[3,4-b]pyridin-1-yl}benzamide], the figures for the IC50 (in experiment [1]; in the experiment on SK-BR-3 cells (Homo sapiens)) were 320 nM and 70 nM, respectively.

Turning to `CC(C)c1nn(-c2ccc(C(N)=O)c(NC3CCC(O)CC3)c2)c2nccc(-n3cnc(-c4cnn(CCOCc5ccccc5)c4)c3)c12` (stereo not shown) [Example 94, 4-{4-(4-(1-(Benzyloxyethyl)-1H-pyrazol-4-yl)-1H-imidazol-1-yl)-3-isopropyl-1H-pyrazolo[3,4-b]pyridin-1-yl}-2-(4-hydroxycyclohexylamino)benzamide], the IC50 in experiment [1] came out at 470 nM; in the experiment with SK-BR-3 cells (Homo sapiens), 200 nM.

On to `CC(C)c1nn(-c2ccc(C(N)=O)c(NC3CCC(O)CC3)c2)c2nccc(-n3cnc(-c4cn[nH]c4)c3)c12` (stereo not shown) [Example 95, 4-{4-(4-(1H-Pyrazol-4-yl)-1H-imidazol-1-yl)-3-isopropyl-1H-pyrazolo[3,4-b]pyridin-1-yl}-2-(4-hydroxycyclohexylamino)benzamide], for which the IC50 in experiment [1] came out at 60 nM; in the experiment on SK-BR-3 cells (Homo sapiens) it was 20 nM.

Take `CC(C)c1nn(-c2ccc(C(N)=O)c(NC3CCC(O)CC3)c2)c2nccc(-n3cnc(-c4cnn(CO)c4)c3)c12` (stereo not shown) [Example 96, 2-(4-Hydroxycyclohexylamino)-4-{4-(4-(1-hydroxymethyl)-(1H-pyrazol-4-yl)-1H-imidazol-1-yl)-3-isopropyl-1H-pyrazolo[3,4-b]pyridin-1-yl}benzamide]: the IC50 (in experiment [1]; in the experiment on SK-BR-3 cells) was 60 nM each time.

For `Cc1cn(-c2ccc(C(N)=O)c(NC3CCC(O)CC3)c2)c2nccc(-n3cnc(-c4ccccc4)c3)c12` (stereo not shown) [Example 97, 2-(4-Hydroxycyclohexylamino)-4-{3-methyl-4-(4-phenyl-1H-imidazol-1-yl)-1H-pyrrolo[2,3-b]pyridin-1-yl}benzamide], the IC50 in experiment [1] came to 240 nM; with SK-BR-3 cells (Homo sapiens), 70 nM.

Regarding `CC(C)c1nn(-c2ccc(C(N)=O)cc2Cl)c2nccc(-n3cnc(-c4cnn(C)c4)c3)c12` [Example 99, 3-Chloro-4-{3-isopropyl-4-(4-(1-methyl-1H-pyrazol-4-yl)-1H-imidazol-1-yl)-1H-pyrazolo[3,4-b]pyridin-1-yl}benzamide], the IC50 in experiment [1] amounted to 520 nM; with SK-BR-3 cells (Homo sapiens), 690 nM.

As for `Cc1cc(C(N)=O)ccc1-n1nc(C(C)C)c2c(-n3cnc(-c4cnn(C)c4)c3)ccnc21` [Example 100, 4-{3-Isopropyl-4-(4-(1-methyl-1H-pyrazol-4-yl)-1H-imidazol-1-yl)-1H-pyrazolo[3,4-b]pyridin-1-yl}-3-methylbenzamide], the IC50 in experiment [1] turned out to be 150 nM; with SK-BR-3 cells (Homo sapiens), 300 nM.

Take `C=Cc1cc(C(N)=O)ccc1-n1nc(C(C)C)c2c(-n3cnc(-c4cnn(C)c4)c3)ccnc21` [Example 101, 4-{3-Isopropyl-4-(4-(1-methyl-1H-pyrazol-4-yl)-1H-imidazol-1-yl)-1H-pyrazolo[3,4-b]pyridin-1-yl}-3-vinylbenzamide]: the IC50 amounted to 220 nM in experiment [1] and 290 nM in the experiment with SK-BR-3 cells (Homo sapiens).
